From US11008317B2, “Triazolopyridine inhibitors of myeloperoxidase and/or EPX” (priority 2016, dated 2021)

Columns and labels:
myeloperoxidase [1] = molecular target: T1, myeloperoxidase (Homo sapiens, UniProt P05164); assay: MPO Peroxidation Assay (Amplex Red Assay); type: biochemical; details: potency range class, read-out: Amplex Red Assay IC50 value
T1 sequence (P05164 49-745): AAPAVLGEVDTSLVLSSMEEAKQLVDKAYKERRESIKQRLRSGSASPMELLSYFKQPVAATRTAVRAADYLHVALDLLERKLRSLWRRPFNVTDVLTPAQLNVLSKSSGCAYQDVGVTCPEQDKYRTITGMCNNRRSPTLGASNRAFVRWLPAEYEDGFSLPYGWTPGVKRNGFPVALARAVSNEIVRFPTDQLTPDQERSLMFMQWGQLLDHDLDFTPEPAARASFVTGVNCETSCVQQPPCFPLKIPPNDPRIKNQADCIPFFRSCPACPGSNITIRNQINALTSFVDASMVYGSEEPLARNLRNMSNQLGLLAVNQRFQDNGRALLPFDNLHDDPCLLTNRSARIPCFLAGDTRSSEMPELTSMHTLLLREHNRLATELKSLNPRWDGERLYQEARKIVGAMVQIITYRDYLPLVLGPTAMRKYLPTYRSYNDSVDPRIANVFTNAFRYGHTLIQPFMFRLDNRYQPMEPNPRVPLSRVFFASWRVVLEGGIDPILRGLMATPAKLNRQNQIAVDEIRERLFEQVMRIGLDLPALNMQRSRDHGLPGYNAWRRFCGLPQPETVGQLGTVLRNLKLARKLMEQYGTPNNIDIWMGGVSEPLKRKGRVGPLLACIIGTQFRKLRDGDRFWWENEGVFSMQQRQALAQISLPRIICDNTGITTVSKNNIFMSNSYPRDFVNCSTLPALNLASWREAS

myeloperoxidase [2] = molecular target: T1, myeloperoxidase; assay: MPO Chlorination Assay (APF Assay); type: biochemical; details: potency range class, read-out: APF Assay IC50 value

| IC50 (myeloperoxidase [1]) [nM] | IC50 (myeloperoxidase [2]) [nM] | SMILES |
| --- | --- | --- |
| 1 to 100 | 1 to 100 | Nc1cc([C@H](CCN(CC(O)C(F)(F)F)C23CCC(c4ccccc4)(CC2)CC3)c2ccccc2)c2nn[nH]c2n1 (stereo partly drawn) [Example 198, 3-{[(3R)-3-{5-amino-3H-[1,2,3]triazolo [4,5-b]pyridin-7-yl}-3-phenylpropyl]({4-phenylbicyclo[2.2.2]octan-1-yl})amino}-1,1,1-trifluoropropan-2-ol] |
| 101 to 999 | 1 to 100 | Nc1cc(C(CCN[C@H]2CCc3cc(F)ccc32)c2ccccc2)c2nn[nH]c2n1 (stereo partly drawn) [Example 58, 7-(3-{[(1S)-5-fluoro-2,3-dihydro-1H-inden-1-yl]amino}-1-phenylpropyl)-3H-[1,2,3]triazolo[4,5-b]pyridin-5-amine] |
| 101 to 999 | 101 to 999 | Nc1cc([C@H](Cc2nc3ccc(-c4ccccc4)cc3[nH]2)c2ccccc2)c2nn[nH]c2n1 [Example 256, (R)-7-(1-phenyl-2-(6-phenyl-1H-benzo[d]imidazol-2-yl)ethyl)-3H-[1,2,3]triazolo [4,5-b]pyridin-5-amine] |
| 1000 to 10000 | 1 to 100 | Cc1ccc(F)c(C(CCN[C@H]2CC[C@H](c3ccccc3)CC2)c2cc(N)nc3[nH]nnc23)c1 (stereo partly drawn) [Example 168, 7-[1-(2-fluoro-5-methylphenyl)-3-{[(trans)-4-phenylcyclohexyl]amino}propyl]-3H-[1,2,3]triazolo [4,5-b]pyridin-5-amine] |
| 1000 to 10000 | 1000 to 10000 | Nc1cc(C(CCCN2CC(c3ccc(F)cc3)c3ccccc32)c2ccccc2)c2nn[nH]c2n1 (stereo not shown) [Example 205, 7-{4-[3-(4-fluorophenyl)-2,3-dihydro-1H-indol-1-yl]-1-phenylbutyl}-3H-[1,2,3]triazolo [4,5-b]pyridin-5-amine] |
| 1000 to 10000 | 1 to 100 | Nc1cc([C@H](CCCN2CCC3(CC2)NC(=O)Nc2ccccc23)c2ccccc2)c2nn[nH]c2n1 [Example 222, 1-[(4R)-4-{5-amino-3H-[1,2,3]triazolo [4,5-b]pyridin-7-yl}-4-phenylbutyl]-2′,3′-dihydro-1′H-spiro [piperidine-4,4′-quinazoline]-2′-one] |
| 1000 to 10000 | 1 to 100 | Nc1cc(C(CCNCC(c2ccccc2)c2ccccc2)c2ccccc2)c2nn[nH]c2n1 (stereo not shown) [Example 120, 7-{3-[(2,2-diphenylethyl)amino]-1-phenylpropyl}-3H-[1,2,3]triazolo[4,5-b]pyridin-5-amine] |
| 1000 to 10000 | 101 to 999 | Nc1cc(C(CCNCc2ccccc2OC(F)(F)F)c2ccccc2)c2nn[nH]c2n1 (stereo not shown) [Example 89, 7-[1-phenyl-3-({[2-(trifluoromethoxy)phenyl]methyl}amino)propyl]-3H-[1,2,3] triazolo[4,5-b] pyridin-5-amine] |
| 1 to 100 | 1 to 100 | Nc1cc(C(CCNC23CCC(c4ccccc4)(CC2)C(O)C3)c2ccccc2)c2nn[nH]c2n1 (stereo not shown) [Example 145, 4-[(3-{5-amino-3H-[1,2,3]triazolo[4,5-b]pyridin-7-yl}-3-phenylpropyl)amino]-1-phenylbicyclo [2.2.2]octan-2-ol] |
| 101 to 999 | 101 to 999 | Nc1cc([C@H](CCCN2CCC(Cc3ccccc3)C2)c2ccccc2)c2nn[nH]c2n1 (stereo partly drawn) [Example 221, 7-[(1R)-4-(3-benzylpyrrolidin-1-yl)-1-phenylbutyl]-3H-[1,2,3]triazolo[4,5-b]pyridin-5-amine] |
| 1000 to 10000 | 101 to 999 | Nc1cc(C(CCN[C@@H]2CCc3ccc(C(F)(F)F)cc32)c2ccccc2)c2nn[nH]c2n1 (stereo partly drawn) [Example 124, 7-(1-phenyl-3-{[(1R)-6-(trifluoromethyl)-2,3-dihydro-1H-inden-1-yl]amino}propyl)-3H-[1,2,3] triazolo[4,5-b] pyridin-5-amine] |
| 101 to 999 | 1 to 100 | Nc1cc(C(CCN[C@H]2CCc3ccc(F)cc32)c2ccccc2)c2nn[nH]c2n1 (stereo partly drawn) [Example 57, 7-(3-{[(1S)-6-fluoro-2,3-dihydro-1H-inden-1-yl]amino}-1-phenylpropyl)-3H-[1,2,3]triazolo[4,5-b]pyridin-5-amine] |
| 101 to 999 | 1 to 100 | Nc1cc(C(CCNCc2ccccc2Cc2ccc3c(c2)CCCC3)c2ccccc2)c2nn[nH]c2n1 (stereo not shown) [Example 78, 7-{1-phenyl-3-[({2-[(5,6,7,8-tetrahydronaphthalen-2-yl)methyl]phenyl}methyl)amino]propyl}-3H-[1,2,3] triazolo[4,5-b] pyridin-5-amine] |
| 1 to 100 | 101 to 999 | Nc1cc([C@H](Cc2nc3ccccc3s2)c2ccccc2)c2nn[nH]c2n1 [Example 239, (R)-7-(2-(benzo[d]thiazol-2-yl)-1-phenylethyl)-3H-[1,2,3]triazolo[4,5-b]pyridin-5-amine] |
| 1000 to 10000 | 1 to 100 | Nc1cc([C@H](Cc2nc3c(-c4cccc(C5CC5)c4)cccc3[nH]2)c2ccccc2)c2nn[nH]c2n1 [Example 251, (R)-7-(2-(4-(3-cyclopropylphenyl)-1H-benzo[d]imidazol-2-yl)-1-phenylethyl)-3H-[1,2,3]triazolo [4,5-b]pyridin-5-amine] |
| 101 to 999 | 101 to 999 | Nc1cc(C(CCNCCc2ccccc2)c2ccccc2)c2nn[nH]c2n1 (stereo not shown) [Example 109, 7-{1-phenyl-3-[(2-phenylethyl)amino]propyl}-3H-[1,2,3] triazolo[4,5-b] pyridin-5-amine] |
| 101 to 999 | 101 to 999 | Nc1cc(C(Cc2ccccn2)c2ccccc2)c2nn[nH]c2n1 (stereo not shown) [Example 38, 7-(1-phenyl-2-(pyridin-2-yl)ethyl)-3H-[1,2,3]triazolo[4,5-b]pyridin-5-amine] |
| 1000 to 10000 | 1 to 100 | Nc1cc(C(CCN2CCC(Cc3ccccc3)CC2)c2ccccc2)c2nn[nH]c2n1 (stereo not shown) [Example 187, 7-[3-(4-benzylpiperidin-1-yl)-1-phenylpropyl]-3H-[1,2,3]triazolo [4,5-b]pyridin-5-amine] |
| 1000 to 10000 | 101 to 999 | CC(C)(C)C1CCC(NCCC(c2ccccc2)c2cc(N)nc3[nH]nnc23)CC1 (stereo not shown) [Example 96, 7-{3-[(4-tert-butylcyclohexyl)amino]-1-phenylpropyl}-3H-[1,2,3]triazolo[4,5-b] pyridin-5-amine] |
| 1000 to 10000 | 1 to 100 | Nc1cc(C(CCN[C@H]2CC[C@H](c3ccccc3)CC2)c2cccc(CO)c2)c2nn[nH]c2n1 (stereo partly drawn) [Example 164, [3-(1-{5-amino-3H-[1,2,3]triazolo [4,5-b]pyridin-7-yl}-3-{[(trans)-4-phenylcyclohexyl]amino}propyl)phenyl]methanol] |
| 101 to 999 | 1 to 100 | N#CC1(c2ccccc2)CCN(CCCC(c2ccccc2)c2cc(N)nc3[nH]nnc23)CC1 (stereo not shown) [Example 211, 1-(4-{5-amino-3H-[1,2,3]triazolo [4,5-b]pyridin-7-yl}-4-phenylbutyl)-4-phenylpiperidine-4-carbonitrile] |
| 101 to 999 | 1000 to 10000 | N#Cc1ccc(C(CCN[C@H]2CC[C@H](c3ccccc3)CC2)c2cc(N)nc3[nH]nnc23)cc1 (stereo partly drawn) [Example 159, 4-(1-{5-amino-3H-[1,2,3]triazolo [4,5-b]pyridin-7-yl}-3-{[(trans)-4-phenylcyclohexyl]amino}propyl) benzonitrile] |
| 101 to 999 | 1 to 100 | Nc1cc(C(CCN[C@@H]2CC[C@@H](c3ccccc3)C[C@@H]2CO)c2ccccc2)c2nn[nH]c2n1 (stereo partly drawn) [Example 180, [(1S,2R,5R)-2-[(3-{5-amino-3H-[1,2,3]triazolo[4,5-b]pyridin-7-yl}-3-phenylpropyl)amino]-5-phenylcyclohexyl] methanol] |
